# pIC50, pKd: −log10 of the molar value.
# Legend:
# [1] = molecular target: T1, PIM2 (Homo sapiens, UniProt Q9P1W9); assay: KINOMEscan competition binding assay, PIM2
# T1 construct: purchased Eurofins (KINOMEscan assay service); host or cells: E. coli BL21-derived (T7 phage) or HEK-293
# Text: The Hill Slope was set to −1.
# [2] = system: HN-13-0020; assay: PDX cytotoxicity assay, head and neck PDX HN-13-0020; format: cell-based
# Protocol: PDX-derived cell cultures were obtained from tumors explanted from mice and isolated by mechanical and enzymatic dissociation. […] Cells were harvested and seeded in 96-wells plates at a density of 1.25 to 5×10^3 cells/well for cytotoxicity assays. Cells were incubated 48 h at 37° C. prior to addition of test molecules and vehicle (DMSO, 0.1%) at desired final concentrations. Cell viability was assessed before drugs' addition (T0) and 5 days after test molecules addition by measuring ATP cell content using CellTiter-Glo® Luminescent Cell Viability Assay (Promega) according to the manufacturer's instructions. Luciferase activity was measured on a luminometer (PerkinElmer® EnVision™). Each concentration of compounds was tested in triplicate.
# Viability was calculated as a percentage of ATP value compared to vehicle treated controls.
# For PDX primary cell cultures, the tumour tissue was washed with PBS containing antibiotic-antimycotic and non-tumour tissue and necrotic tumour tissues were separated. The tumour tissue was transferred to a new dish and cut into 1˜2 mm^3 fragments, resuspended in RPMI-1640 medium and centrifuged at 1,200 rpm for 6 min at room temperature. The pelleted material was resuspended with 15 mL of Tumour Cell Digestion Solution and incubated at 37° C. for 1 hour with agitation. […]
# [3] = system: NAWALMA; assay: Cell viability assay, lymphoma cell line NAWALMA; format: cell-based
# Protocol: Antitumor activity of the compounds and doxorubicin as a positive control was assessed by using the CellTiter-Blue Cell Viability Assay (Promega, #G8082) or CellTiter-Glow® Luminescent Cell Viability assay (Promega # G7572) according to the manufacturer's instructions. The compounds were tested at 5 or 6 concentrations in half-log increments (highest concentration 30 μM-100 μM) in duplicate or triplicate well conditions.
# Tumor cells were grown at 37° C. in a humidified atmosphere with 5% CO2 in RPMI 1640 or DMEM medium, supplemented with 10% (v/v) fetal calf serum and 50 μg/ml gentamicin for up to 20 passages, and were passaged once or twice weekly. Cells were harvested using TrypLE or PBS buffer containing 1 mM EDTA, and the percentage of viable cells is determined using a CASY Model TT cell counter (OMNI Life Science). Cells were harvested from exponential phase cultures, counted and plated in 96 well flat-bottom microtiter plates at a cell density depending on the cell line's growth rate (4,000-20,000 cells/well depending on the cell line's growth rate, up to 60,000 for hematological cancer cell lines) in RPMI 1640 or DMEM medium supplemented with 10% (v/v) fetal calf serum and 50 μg/ml gentamicin (140 μl/well). […] Viability of cells was quantified by the CellTiter-Blue® cell viability assay (Promega G8081) or CellTiter-Glow® Luminescent Cell Viability assay (Promega # G7572). […]
# T1 sequence (Q9P1W9 whole entry): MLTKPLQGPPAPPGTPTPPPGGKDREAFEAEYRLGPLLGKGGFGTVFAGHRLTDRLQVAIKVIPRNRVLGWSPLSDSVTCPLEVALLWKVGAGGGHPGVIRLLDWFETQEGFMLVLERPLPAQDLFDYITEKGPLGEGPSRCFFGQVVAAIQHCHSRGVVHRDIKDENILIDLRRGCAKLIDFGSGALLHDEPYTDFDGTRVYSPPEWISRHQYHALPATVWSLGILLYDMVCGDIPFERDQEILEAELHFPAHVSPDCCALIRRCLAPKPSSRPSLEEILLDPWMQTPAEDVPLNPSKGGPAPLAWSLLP
smiles,measurement,setting,value
COc1c(O)ccc2c(=O)cc(-c3ccc(CNCCCCNCCCN)cc3)oc12 [SND164],pKd,[1],6.20
same,pIC50,[2],5.57
same,pIC50,[3],5.59

# From patent publication US20240132461A1, “FLAVONE DEAZA SPERMIDINE ANALOGUES AND THEIR USE TREATING CANCER” (FLORATEK PHARMA S.A., priority 2021, published 2024)
